Results taken from patent USRE40912E1, “Process for isolation, purification, and recrystallization of lutein from saponified marigold oleoresin and uses thereof” (The Catholic University of America, priority 1994, dated 2009).

Columns and labels:
[1] = human study of oral lutein dose, plasma carotenoid profile; format: in vivo; details: oral 10 mg lutein dose as suspension in olive oil (ethanol, α-tocopherol, polysorbate 80), spread on a bagel
Method: Carotenoids are considered among the fat soluble nutrients and are usually associated with the lipoprotein fractions of human blood. […] In the following, the procedure employed for the preparation of a small batch (100 dose, each 10 mg) of purified lutein is described.
Purified lutein from marigold flowers extract (1 g) was added to absolute alcohol (75 mL). To this solution α-tocopherol (50 mg) and food grade polysorbate 80 (an emulsifier, 4 g) was added and the mixture was sonicated for 10 minutes. The addition of α-tocopherol (0.01% by weight) was to stabilize lutein and prevent this compound from possible oxidation during long term storage. The above suspension was then mixed with 350 g of light and mild olive oil (saturated fat/polyunsaturated fat=2/1) and the mixture was sonicated for 5 minutes. […] 7 mL aliquots of this suspension was shown by spectrophotometric analysis to contain 10 mg of lutein. At various intervals, the stability and the purity of lutein suspension in the olive oil was determined by spectrophotometric and HPLC analysis. […] In one study each 7 mL aliquot of the olive oil (containing 10 mg lutein) was spread on a bagel prior to ingestion. Alternatively, this small volume of oil can be readily taken with other foods. […]

[2] = stability of lutein suspension in olive oil by spectrophotometric and HPLC analysis; format: physicochemical; details: suspension in olive oil with α-tocopherol and polysorbate 80, stored under nitrogen in a refrigerator
Method: Purified lutein from marigold flowers extract (1 g) was added to absolute alcohol (75 mL). To this solution α-tocopherol (50 mg) and food grade polysorbate 80 (an emulsifier, 4 g) was added and the mixture was sonicated for 10 minutes. The addition of α-tocopherol (0.01% by weight) was to stabilize lutein and prevent this compound from possible oxidation during long term storage. The above suspension was then mixed with 350 g of light and mild olive oil (saturated fat/polyunsaturated fat=2/1) and the mixture was sonicated for 5 minutes. […] 7 mL aliquots of this suspension was shown by spectrophotometric analysis to contain 10 mg of lutein. At various intervals, the stability and the purity of lutein suspension in the olive oil was determined by spectrophotometric and HPLC analysis. […] In one study each 7 mL aliquot of the olive oil (containing 10 mg lutein) was spread on a bagel prior to ingestion. Alternatively, this small volume of oil can be readily taken with other foods. Although this preparation of lutein dose is appropriate for conducting human studies with a limited number of subjects, other preparations of this compound into tablets or capsules can be accomplished. The formulation of β-carotene into tablets and capsules which has been developed by Hoffmann-La Roche Inc. (Nutley, N.J.), may also be found suitable for lutein with some minor modifications.

absorption of lutein by the subjects as determined from analysis of their plasma carotenoid profile [1]: excellent absorption | stability of lutein suspension in olive oil [2]: stable for up to one month
Structure (SMILES): CC1=C[C@H](O)CC(C)(C)[C@H]1/C=C/C(C)=C/C=C/C(C)=C/C=C/C=C(C)/C=C/C=C(C)/C=C/C1=C(C)C[C@@H](O)CC1(C)C [lutein, (3R,3′R,6′R)-β,ε-Carotene-3,3′-diol]
